Test results from patent US20060122282A1, “METHOD FOR TREATING SKIN DISORDERS WITH XANTHOPHYLLS” (priority 2004, published 2006).

Experiment: blister healing of the skin (blisters raised, roofs cut off)
Type: in vivo, human
Settings: topical application before raising the blister; alone or in combination with xanthophylls
From the text: Experiments have been performed wherein blisters have been raised and the roofs cut off of the skins of individuals of various ages.

CC1=C(/C=C/C(C)=C/C=C/C(C)=C/C(=O)O)C(C)(C)CCC1 [tretinoin, all-trans retinoic acid]
healing time of blisters: halves
